Source: patent US10201536B2, “Methods and pharmaceutical compositions for the treatment of bacterial infections in patients suffering from cirrhosis” (INSERM (INSTITUT NATIONAL DE LA SANTE ET DE LA RECHERCHE …, priority 2015, dated 2019)
Residues, ends and D or L forms follow the SMILES beside them. *: point of attachment. MeOSuc = COC(=O)CCC(=O)*; CH2Cl = ClC*

Tests used:
Assay type in all cases: cell-based
neutrophil elastase [1] = target: T1, neutrophil elastase (Homo sapiens, UniProt P08246); assay: fMLP-induced depletion of gp91phox and p22phox in healthy PMN with elastase inhibitor; details: 100 μM 15 min before fMLP (1 μM) 45 min
T1 construct: a cell-free degranulation supernatant obtained from fMLP (1 μM, 2 min) stimulated PMN; endogenous in cells; host or cells: healthy human PMN stimulated with fMLP, or their cell-free degranulation supernatant
T1 sequence (P08246 30-267): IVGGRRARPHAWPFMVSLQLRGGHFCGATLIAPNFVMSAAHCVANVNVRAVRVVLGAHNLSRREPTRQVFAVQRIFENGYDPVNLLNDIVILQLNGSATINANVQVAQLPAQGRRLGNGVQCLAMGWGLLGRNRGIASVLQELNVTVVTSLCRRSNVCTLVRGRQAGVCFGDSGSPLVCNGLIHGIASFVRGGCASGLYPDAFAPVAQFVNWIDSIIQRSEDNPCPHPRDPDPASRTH
Method: (§1) FIG. 8. Elastase induces the degradation of gp91phox and p22phox in healthy PMN. (A and B) Western-blot analysis and densitometric quantification of gp91phox and p22phox in healthy PMN treated in the absence or presence of elastase at 0.1 and 0.5 units for 1 hour. (C and D) Western-blot analysis densitometric quantification of gp91phox and […] in healthy PMN treated in the absence or presence of the elastase inhibitor (NEI) at 100 μM for 15 min before stimulation with fMLP (1 μM) for 45 min. (E) Western-blot analysis densitometric quantification of gp91phox in healthy PMN pretreated in the absence or presence of the elastase inhibitor (NEI) at 100 μM for 15 min before incubation for 45 min with a cell-free degranulation supernatant obtained from fMLP (1 μM, 2 min) stimulated PMN. Blots are representative of 4 experiments and densitometric analyses are cumulative and expressed as percentage of the actin level. […] (F) Sensorgrams of the PMN specific binding and dissociation to the anti-gp91phox antibody (7D5) coated to the CM3 sensorchip, analysed with the Biacore X100, as a function of time. […] Data are representative of 3 independent experiments are expressed as resonance unit (RU). (G) Flow cytometry quantification of the Gp91phox expression at the surface of PMN treated or not (Control) with 0.5 unit Elastase at 4° C. […]

neutrophil elastase [2] = target: T1, neutrophil elastase; assay: gp91phox degradation in healthy PMN by cell-free degranulation supernatant with elastase inhibitor; details: 100 μM 15 min pretreatment, 45 min supernatant
Method: as §1

elastase [3] = target: T2, elastase (Homo sapiens, UniProt P08246); assay: NOX2 activity (superoxide production) of healthy PMN treated with plasma from cirrhotic patients, with NEI; details: 12 H, 25% plasma, 100 μM, PMA-induced superoxide
T2 construct: with plasma of healthy volunteers or cirrhotic patients, (25% plasma in 1 ml RPMI containing 5×10^6 PMN); from tissue; host or cells: plasma of cirrhotic patients, incubated with healthy human PMN
T2 sequence (P08246 30-267): T1 sequence (P08246 30-267)
Method: (§2) FIG. 9. Plasma from cirrhotic patients reduces gp91phox expression at the surface of healthy PMN and ROS production in NEI-sensitive manner. PMN were pretreated for 12 H at 37° C. with RPMI (control) or with plasma of healthy volunteers or cirrhotic patients, (25% plasma in 1 ml RPMI containing 5×10^6 PMN) either in the absence or presence of the elastase inhibitor NEI (100 μM). PMN were labelled with the anti-gp91phox FITC-coupled antibody. (A) Quantification of the number of positive cells labeled with the anti-gp91phox FITC-coupled antibody (7D5) by Flow cytometry, expressed as percentage of control values. […] (C, D) Time course production of superoxide induced by PMA by healthy PMN which were pretreated for 12 H in the absence (Buffer/RPMI) or presence of plasma from healthy volunteers and cirrhotic patients, either with or without 100 μM NEI. (E) Production of superoxide expressed as percentage of control values (mean±SEM, n=5). […]
(§3) Granulocyte elastase is released during infectious processes and has been proposed to be helpful for the diagnosis of patients with spontaneous bacterial peritonitis (Casafon et al., 1999), a major complication of the alcoholic liver cirrhosis. […] Consistent with this observation, patients' plasmas inhibited NOX2 activity of PMN measured by the cytochrome C assay (FIGS. 9C-E) and chemiluminescence.

elastase [4] = target: T2, elastase; assay: gp91phox surface expression of healthy PMN treated with plasma from cirrhotic patients, with NEI; details: 12 H, 25% plasma, 100 μM
Method: as §2, §3

COC(=O)CCC(=O)N[C@@H](C)C(=O)N[C@@H](C)C(=O)N1CCC[C@H]1C(=O)N[C@H](C(=O)CCl)C(C)C [NEI, MeOSuc-AAPV-CMK] (MeOSuc-AAPV-CH2Cl)
fMLP-induced depletion of gp91phox and p22phox (neutrophil elastase [1]): prevented | gp91phox degradation by cell-free degranulation supernatant (neutrophil elastase [2]): blocked gp91phox degradation | inhibition of NOX2 activity by patients' plasma (elastase [3]): prevented the inhibitory effects | decrease of gp91phox positive cells and surface expression caused by patients' plasma (elastase [4]): prevented
